The results in this text go back to US11193114B2, “Immunogenic peptides for use in the prevention and/or treatment of infectious diseases, autoimmune diseases, immune responses to allofactors, allergic diseases, tumors, graft rejection and immune responses against viral vectors used for gene therapy or gene vaccination” (IMNATE SARL, priority 2010, dated 2021).

Assay [1] deals with EG7 tumor cells. Briefly: Apoptosis of EG7 tumor cells by CD4+ NKT cell lines from peptide-immunized mice (Annexin V / 7-AAD). Type of assay: cell-based, mouse (C57BL/6, H-2b). The note with it: EG7 cells cultured 18 h at ratio 1/1 with NKT cell lines from mice immunized with the peptide. The protocol:
C57BL/6 mice (n=6) were immunized by four subcutaneous injections of 50 μg of peptide of SEQ ID NO: 3 in alum carried out at one-week interval.
Such peptide contains a CD1d-restricted NKT cell epitope derived from ovalbumin and a thioreductase motif in flanking residues. A control group (n=6) of mice received physiological serum in alum instead of peptide. Ten days after the last immunization the mice were sacrificed and spleen CD4+ T cells were prepared by magnetic cell sorting. Such cells were stimulated twice with the immunizing peptide in vitro before assessing their activation state as measured by the production of IL-4 and IFN-gamma.
CD4+ NKT cell lines were then assayed in vitro for their capacity to kill EG7 tumor cells. EG7 tumor cells (H-2b) are derived from a thymoma transduced with an ova construct. A CD1d restricted ova epitope is presented by such cells, which is known to be insufficient to trigger NKT activation and tumor cell killing.
EG7 cells were labeled at membrane level with 1 μM DiOC18 (3,3′ dioctadecycloxacarbocyanine perchlorate from Invitrogen). […] After 18 h, cells were harvested and stained for Annexin V and 7-AAD following manufacturer's instructions (Apoptosis Detection kit; BD Biosciences) and analysed on a FACSCantoll flow cytometer (BD Biosciences).

Assay [2] has as its system Factor VIII specific CD4+ T cells. Briefly: Activation (IL-4, IFN-gamma production) of Factor VIII specific CD4+ T cells from mice immunized with peptide, then injected with human factor VIII. It counts as in vivo, BALB/c Factor VIII KO mice. The following applies: mice immunized 4 times with 50 μg peptide vs control group without peptide; spleen CD4+ T cells restimulated in vitro. The protocol: BALB/c Factor VIII KO mice (group A) were immunized 4 times at 1 week interval with 50 μg of peptide 2196, which contains a CD1d-restricted NKT cell epitope and a C-XX-C (SEQ ID NO: 14) thioreductase motif within flanking residues (SEQ ID NO: 1).
Human factor VIII was then injected by the subcutaneous route using 10 IU per injection on 5 occasions separated by one week. Ten days after the last immunization the mice were sacrificed and spleen CD4+ T cells were prepared by magnetic cell sorting. Such cells were stimulated twice with the immunizing peptide and FVIII in vitro before assessing their activation state as measured by the production of IL-4 and IFN-gamma. […] The results (FIG. 1) show a 10-fold reduction of IL-4 production by Factor VIII specific CD4+ T cells obtained from mice immunized with the peptide as compared to the control group, and a 7-fold reduction in the production of IFN-gamma. Results are shown as means+SEM.

Assay [3] relates to Der p I induced asthma in BALB/c mice. As to the kind of experiment: Prevention of Der p I induced allergic asthma by peptide immunization. Type of assay: in vivo. The following applies: 4 injections of 50 μg peptide; Der p I nasal instillation 10 days after last immunization. The source says:
Allergens from the house dust mite, D. pteronyssinus, are frequently involved in allergic asthma. Der p I is the main allergen of D. pteronyssinus. The sequence of Der p I contains a CD1d binding motif corresponding to amino acid sequence 38 to 44. A peptide of sequence WAFSGVAATES (SEQ ID NO: 12) is produced by synthesis as well as its counterpart containing a thioreductase motif Thus, peptide of CGPCGGFSGVAATES (SEQ ID NO: 8) contains a thioreductase motif (underlined) and a linker of 2 glycines between the motif and the CD1d-binding motif.
Allergic asthma can be induced in BALB/c mice by nasal instillations of 100 μg Der p I administered on 3 consecutive days. Asthma is characterized by bronchial hyperreactivity and attraction of eosinophil infiltrates into the lung.
BALB/c mice are immunized by 4 injections of 50 μg of peptides of either SEQ ID8 or peptide in natural sequence as a control. Der p I is administered by nasal instillation 10 days after the last immunization.

The test system of assay [4] is Ad5 viral particles. Briefly: Anti-Ad5 IgG antibody response after peptide immunization and Ad5 injection (direct binding ELISA). It counts as in vivo, C57BL/6 mice. The note with it: four sc injections of 50 μg peptide in alum, then 2 IV Ad5 injections; serum 10 days after last Ad5 injection. The protocol:
C57BL/6 mice (n=6) were immunized by four subcutaneous injections of 50 μg of peptide of SEQ ID NO: 2 in alum carried out at one-week interval.
Such peptide contains a CD1d-restricted NKT cell epitope of hex on protein of adenovirus (Ad5) and a thioreductase motif in flanking residues. A control group (n=6) of mice received physiological serum in alum instead of peptide. All mice then received 2 injections of 109 Ad5 viral particles by the IV route, separated by I week. Ten days after the last Ad5 injection, mice were bled and the concentration of total IgG antibodies to Ad5 particles was measured in a direct binding ELISA Briefly, Ad5 viral particles were insolubilized on polystyrene plates, followed by washing and incubation with a dilution of mouse serum. After a second washing, the binding of mouse anti-Ad5 antibodies was detected by addition of a goat antiserum to mouse IgG. […] Results are given in arbitrary units as means+SEM.
(An ELISA detects its analyte on a solid surface through an enzyme-linked reagent.)

Assay [5] deals with EAE (experimental autoimmune encephalomyelitis) in C57BL/6 mice. As to the kind of experiment: Prevention of EAE by pre-immunization with MOG peptide. The following applies: four sc immunizations (50 μg) before disease induction with MOG 35-55. It counts as in vivo. The protocol:
MOG contains a sequence which binds to CD1d and activates NKT cells. Thus, peptide of sequence PHFLRVPCWKI (SEQ ID NO: 10) is produced by synthesis and a thioreductase-containing peptide of sequence CHGCGGFLRVPCWKI (peptide of SEQ ID NO: 6, in which the thioreductase motif is underlined and a linker of 2 glycines between the motif and the CD1d-binding motif).
Groups of C57BL/6 mice are immunized four times subcutaneously (50 μg) with peptide of SEQ ID6 or, as a control, with peptide in natural sequence. Ten days after the last immunization, all mice, including a group of naive, non-immunized animals, are induced into disease by subcutaneous injection of 100 μg MOG 35-55 peptide/400 μg Mycobacterium butyricum in CFA and ip injection of 300 ng Bordetella pertussis in NaCl. At day +2, a second injection of B. pertussis is given.
Signs of EAE are followed over time.

For assay [6], the system named is NOD mice. Briefly: Prevention of spontaneous insulin-dependent diabetes in NOD mice with GAD65 derived peptides. It counts as in vivo. The following applies: female NOD mice, 4 sc injections from the age of 4 weeks. The source says: GAD65 contains amino acid sequences with the capacity to bind to CD1d. Thus, the sequence PQHTNVCFWFV (SEQ ID NO: 11), corresponding to amino acids 501 to 507 of GAD65, is produced by synthesis, as well as its counterpart encompassing a thioreductase motif within flanking residues: peptide of CHGCGGHTNVCFWFV (SEQ ID NO: 7) (with the thioreductase motif underlined and a linker of 2 glycines between the motif and the CD1d binding motif).
Female NOD mice are immunized from the age of 4 weeks by 4 subcutaneous injections of peptides of either SEQ ID7 or natural sequence, and glycaemia is followed in each of these groups, by comparison to a non-immunized group.

Assay [7] deals with R113 tumor cells. Briefly: Killing of R113 tumor cells by NKT cells stimulated with ALK peptide (Annexin V binding). Type of assay: cell-based, C57BL/6 mice. The following applies: 20 h co-culture with NKT cells stimulated with the peptide. The procedure: CD4 T cells (C57BL/6, H-2b background) obtained from the spleen of naive mice were stimulated four times with autologous dendritic cells loaded with a CD1d-restricted NKT cell epitope of ALK, to which a thioreductase motif of the C-XX-C (SEQ ID NO: 14) format was added within flanking residues. (Peptide of CHGCGGWLQIVTWWGPGS (SEQ ID NO: 5) (with thioreductase motif underlined and 2 glycines used as linker between the motif and the CD1d-restricted epitope)).
As NKT cells have per se a cytolytic activity, we included cells which were stimulated in parallel experiments by exposure to the same CD1d-restricted NKT epitope in natural sequence, without thioredox motif (WLQIVTWWGPGS) (SEQ ID NO: 9).
Ten days after the last stimulation, CD4 T cells were washed and added to cell culture microplates containing 104 Rl13 tum or cells at a 2 to 1 ratio (CD4 to tum or cells). Rl13 is a tumor B cell line obtained from C57BL/6 mice, which constitutively expresses ALK.
After 20 h of co-culture, Rl13 tumor cells were evaluated for Annexin V binding used as marker of cell apoptosis.

For assay [8], the system named is BALB/c-derived ALK+ tumor cell line (VAC). As to the kind of experiment: Killing of VAC ALK+ tumor cells by NKT cells stimulated with ALK peptide (Annexin-V binding by FACS). The note with it: VAC cells co-cultured with BALB/c NKT cells stimulated with the peptide; mean of triplicates. It counts as cell-based, BALB/c mice. The procedure:
Co-culture with a BALB/c-derived ALK+tumor cell line (VAC) was carried out as described above. Apoptosis of tumor cells was measured by evaluating Annexin-V binding by FACS.

Take “CGH CGG FDKLPGF (CGHCGGFDKLPGF) [SEQ ID3]”: the “apoptosis of EG7 tumor cells” value in assay [1] is listed as “are induced into apoptosis”.
Turning to “CGH CGG FTN MFA TWS PSK (CGHCGGFTNMFATWSPSK) [peptide 2196]”, in assay [2], the “reduction in the production of IFN-gamma by Factor VIII specific CD4+ T cells” value is on record as 7 fold and the “reduction of IL-4 production by Factor VIII specific CD4+ T cells” value came out at 10 fold.
As for CGPCGGFSGVAATES [SEQ ID8], in assay [3], the “airway reactivity to inhalation of methacholine” value was “do not develop airway reactivity to inhalation of methacholine” and the “lung infiltration with eosinophils” value is “do not show lung infiltration with eosinophils”.
Consider “CHG CGG FIGLMYY (CHGCGGFIGLMYY) [SEQ ID NO: 2]”, for which the “total IgG antibodies to Ad5 particles” value in assay [4] is reported as “did not produce significant amounts of antibodies”.
On to “CHGCGGFLRVPCWKI [SEQ ID6, thioreductase-containing MOG peptide]”, for which, in assay [5], the “signs of EAE” value was “do not develop EAE”.
Take CHGCGGHTNVCFWFV [SEQ ID7]: the glycaemia entry in assay [6] is reported as “prevented from hyperglycaemia”.
Take “CHGCGGWLQIVTWWGPGS [peptide of sequence 1]”: in assay [7], the “increase in tumor cell death as compared to tumor cells cultured alone” value is recorded as 4.5 fold. The “tumor cell death (Annexin V binding)” value in assay [7] (2 to 1 ratio, mean of triplicates) is 18%. In addition, the “tumor cell death (Annexin-V binding)” value in assay [8] was 25%.
On to “PQHTNVCFWFV [SEQ ID NO: 11, reference compound]”, for which the glycaemia entry in assay [6] is listed as “develop hyperglycaemia starting after the 14th week”.
